From article PMC6838683, “Discovery of Human Signaling Systems: Pairing Peptides to G Protein-Coupled Receptors” (Cell, 2019)
pEC50: −log10 of the molar value. Positions of bridges follow the written chain, without caps; N, C: chain ends. Residues, ends and D or L forms follow the SMILES beside them.

Experiments:
Assay type in all cases: cell-based
GPR68 [1] = biological target: T1, GPR68 (Homo sapiens, UniProt Q15743); experiment: GloSensor cAMP assay (Gs), allosteric operational model fitting; parameters: expressed in transfected cells; host or cells: HEK293T, transient (PEI), co-transfected with GloSensor cAMP plasmid
Experimental: GPR68-mediated cAMP signaling was measured using GloSensor cAMP assays as published previously ([Huang et al., 2015], [Yu et al., 2019]) with modifications as indicated below. Calcium- and magnesium-free HBSS was supplemented with different organic buffer reagents for different pH solutions, 20 mM 2-(N-morpholino)ethanesulfonic acid (MES, Alfa Aesar) for pH 6.00 – 6.70, 20 mM 4-(2-hydroxyethyl)-1-piperazineethanesulfonic acid (HEPES, Fisher) for pH 6.80 – 8.20, and 20 mM (tris(hydroxymethyl)methylamino)propanesulfonic acid (TAPS) for pH 8.30 – 8.60. The phosphodiesterase (PDE) inhibitor Ro 20-1724 (10 μM final, Cayman Chemical) was included in pH buffers to eliminate potential effect of PDE […]. HEK293T cells were transfected with a modified polyethylenimine (PEI, Polysciences) transfection method ([Longo et al., 2013]). For a 15-cm dish of HEK293T cells with 25 mL growth medium, 8 μg receptor DNA and 8 μg GloSensor DNA (Promega) were mixed in 1 mL of Opti-MEM medium followed by addition of 80 μL PEI reagents. The mixture was added to cells after 20 min incubation at room temperature. Overnight transfected cells were plated in poly-L-lysine (Sigma) coated 384-well white clear bottom plates (Greiner Bio-One, #781098) using DMEM (Corning) + 1% dialyzed FBS (Omega Scientific) for at least 6 h (up to 24 h). Cells were removed of medium before receiving 20 μL/well of 3.5 mM luciferin (Goldbio) prepared in assay buffer (HBSS, 20 mM TAPS, pH 8.40, 10 μM Ro 20-1724) for 1 h at 37°C. Luciferin loading solutions were removed and premixed drug solutions at desired pH conditions were added to cells (25 μL/well). Luminescence was measured 25-30 min after drug application. Results were normalized (basal and maximum responses in the absence of modulator were set to be 0 and 100%) and pooled for analysis using GraphPad Prism.
All of the other parameters, including allosteric affinity cooperativity (α), allosteric modulator binding affinity KB, orthosteric agonist (protons) efficacy τA, system maximal response, and slope factor n were all globally shared for all datasets for each modulator. […] We therefore used an allosteric index, log(αβ/KB) ([Kenakin, 2017a]), which contains both allosteric binding affinity and cooperativity, to quantify the overall allosteric activity.
Target sequence in this assay (Q15743 whole entry): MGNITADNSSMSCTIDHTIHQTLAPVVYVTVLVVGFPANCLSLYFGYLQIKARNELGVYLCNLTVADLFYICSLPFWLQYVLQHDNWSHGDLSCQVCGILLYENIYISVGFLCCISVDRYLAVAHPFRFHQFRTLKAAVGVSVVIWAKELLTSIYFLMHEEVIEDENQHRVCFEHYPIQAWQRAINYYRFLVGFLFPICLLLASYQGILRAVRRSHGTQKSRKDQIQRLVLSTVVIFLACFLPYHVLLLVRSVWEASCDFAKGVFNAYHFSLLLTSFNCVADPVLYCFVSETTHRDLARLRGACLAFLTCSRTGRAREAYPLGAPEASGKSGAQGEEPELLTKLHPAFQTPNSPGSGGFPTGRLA

GPR68 [2] = biological target: T1, GPR68; experiment: Dynamic mass redistribution (DMR), concentration-response; parameters: hIL-2Ra signal peptide (N); expressed in transfected cells; conditions: GPR68, mean, SEM and n; for EC50: read-out: pEC50, DMR (AUC) (converted)
How it was run: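 Doxycycline-induced (0.1 μg/ml) SNAP-tagged receptors in TREx 293 cells, equilibrated 90 min at 22°C in HEPES-buffered HBSS, pH 7.4, with 0.1% DMSO. Peptide-evoked optical wavelength shift recorded for 60 min at 22°C, buffer/solvent corrected and quantified as area under the curve. Mean ± SEM of at least 3 independent experiments.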
Target sequence in this assay (Q15743 2-365 limits assumed): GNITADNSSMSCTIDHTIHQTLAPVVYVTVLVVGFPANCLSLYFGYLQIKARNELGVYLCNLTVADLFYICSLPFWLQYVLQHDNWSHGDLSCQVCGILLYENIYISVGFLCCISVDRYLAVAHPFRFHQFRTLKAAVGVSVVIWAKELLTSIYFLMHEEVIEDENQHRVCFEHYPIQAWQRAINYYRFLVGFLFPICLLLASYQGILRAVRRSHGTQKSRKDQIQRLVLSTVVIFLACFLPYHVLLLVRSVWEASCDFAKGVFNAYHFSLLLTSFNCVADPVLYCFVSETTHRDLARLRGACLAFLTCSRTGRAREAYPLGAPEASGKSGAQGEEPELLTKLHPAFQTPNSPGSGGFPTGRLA

HA-OGR1 (GPR68) = biological target: T2, HA-OGR1 (GPR68) (Homo sapiens, UniProt Q15743); experiment: Ca2+ mobilization assay (Fluo-4); conditions: GPR68, data from resynthesized peptide, mean, SEM and n; for Emax: read-out: Emax, Ca2+ mobilization (% iono); for EC50: read-out: pEC50, Ca2+ mobilization (% iono) (converted)
T2 construct: HA; expressed in transfected cells
T2 sequence (Q15743 whole entry): as the sequence (Q15743 whole entry) above
Experimental: Peptide-dependent Ca^2+ mobilization responses were measured in HEK293 stable cell lines (HA-OGR1 (GPR68) and vector pcDNA) ([Saxena et al., 2012]) that were seeded in 96-well plates (1 × 10^5 cells/well) and cultured at 37°C with 5% CO2 to near confluence in DMEM with 10% FBS (Corning). Six hours prior to assay, medium was changed to pH 8.0 or pH 7.4 HAM’s F12 Nutrient Mixture (GIBCO) without FBS and transferred to a 37°C incubator without CO2. One hour prior to stimulation, cells were incubated in pH 8.0 or pH 7.4 HBSS with Ca^2+ and Mg^2+ (GIBCO), supplemented with 15 mM HEPES, 2 μM Fluo-4 AM (Invitrogen) and 1.5 mM probenecid ([…] to prevent Fluo-4 efflux) as described previously ([Pera et al., 2018]). Indicated peptides were pipetted using an automated system and emission signal was recorded at 525 nm after excitation at 485 nm using Flex Station III (Molecular Devices). Ca^2+ mobilization responses were determined by subtracting basal fluorescence from the net peak of agonist-induced fluorescence. Ionomycin (1 μM) was used to calculate the maximum Ca^2+ signal to normalize peptide-mediated responses.

[3] = GPR68, pH 7.4, tested as PAM, data from resynthesized peptide, mean, SEM and n

Question: For `CC[C@H](C)[C@H](NC(=O)[C@H](CCCNC(=N)N)NC(=O)[C@H](C)NC(=O)CNC(=O)[C@H](CCCCN)NC(=O)[C@H](CCCNC(=N)N)NC(=O)[C@@H](NC(=O)[C@H](C)NC(=O)[C@@H]1CSSC[C@H](NC(=O)[C@H](CCSC)NC(=O)[C@@H]2CCCN2C(=O)[C@@H](NC(=O)[C@H](CCC(N)=O)NC(=O)CNC(=O)[C@@H](N)Cc2ccc(O)cc2)C(C)C)C(=O)N[C@@H](CC(=O)O)C(=O)N[C@@H](C)C(=O)NCC(=O)N[C@@H](CCC(=O)O)C(=O)N[C@@H](CCC(N)=O)C(=O)N1)C(C)C)C(N)=O` [CART(42-89)_(9-28)] (H-YGQVPMCDAGEQCAVRKGARI-NH2; disulfide 7-13; N-terminus assumed), which “Emax, cAMP (fold over basal, pH 7.4)” value (GPR68 [1]; [3]) is on record?
Answer: 25.2 fold over basal

Question: What about the EC50 (GPR68 [1]; GPR68, pH 7.4, tested as PAM, data from resynthesized peptide, mean, SEM and n, read-out: pEC50, cAMP (fold over basal, pH 7.4) (converted)) of the same compound?
Answer: 4570 nM

Question: And the “Emax, DMR (AUC)” value (GPR68 [2])?
Answer: 944453.3

Question: And the EC50 (GPR68 [2])?
Answer: 1050 nM

Question: What about the Emax (HA-OGR1 (GPR68)) of the same compound?
Answer: 79.3%

Question: And the EC50 (HA-OGR1 (GPR68))?
Answer: 3310 nM

Question: With `CC(C)C[C@H](NC(=O)[C@@H]1CCCN1C(=O)[C@H](Cc1ccccc1)NC(=O)[C@H](C)NC(=O)[C@H](CCC(=O)O)NC(=O)[C@H](C)NC(=O)[C@H](CO)NC(=O)[C@H](CCC(=O)O)NC(=O)[C@H](CC(N)=O)NC(=O)[C@H](CCC(=O)O)NC(=O)[C@H](C)NC(=O)[C@@H](NC(=O)[C@H](CC(N)=O)NC(=O)[C@@H]1CCCN1C(=O)[C@H](Cc1ccc(O)cc1)NC(=O)[C@@H](NC(=O)[C@H](CCCCN)NC(=O)[C@@H](NC(=O)[C@@H]1CCCN1C(=O)[C@H](CCCNC(=N)N)NC(=O)[C@@H](N)CCCNC(=N)N)C(C)C)C(C)C)C(C)C)C(=O)N[C@@H](CCC(=O)O)C(=O)N[C@@H](Cc1ccccc1)C(=O)O` [Corticotropin_(17-40)] (H-RRPVKVYPNVAENESAEAFPLEF-OH; N-terminus and C-terminus assumed) as the compound, how does the pEC50 (GPR68 [1]) read?
Answer: 5.13

Question: What about the “Emax, cAMP (fold over basal, pH 7.4)” value (GPR68 [1]; [3]) of the same compound?
Answer: 24.2 fold over basal

Question: And the “Emax, DMR (AUC)” value (GPR68 [2])?
Answer: 781397.0

Question: What about the EC50 (GPR68 [2]) of the same compound?
Answer: 1290 nM

Question: And the Emax (HA-OGR1 (GPR68))?
Answer: 63.3%

Question: What about the EC50 (HA-OGR1 (GPR68)) of the same compound?
Answer: 1820 nM
